# Patent US5407940A, “New ellipticine compounds” (priority 1992, dated 1995)
# Assays:
# [1] = tested on: L1210; assay: Cytotoxicity, line L1210 (Microculture Tetrazolium Assay); assay type: cell-based, murine; conditions: for IC50: Mus musculus, L1210, 48 h, 2 days incubation, read-out: Cytotoxicity IC50, line L1210; for times more cytotoxic than adriamycin / times more cytotoxic than elliptinium acetate: L1210
# Excerpt: (§1) The cells are distributed on microplates and exposed to the cytotoxic compounds.
# [2] = tested on: KB-3-1; assay: Cytotoxicity, sensitive line KB-3-1; assay type: cell-based; conditions: Homo sapiens, KB 3-1, 96 h; 4 days incubation; read-out: Cytotoxicity IC50, sensitive KB-3-1
# Excerpt: as §1
# [3] = tested on: P388/VCR-20; conditions: for resistance factor: P388/VCR-20 vs P388
# [4] = tested on: P388/VCR-20; assay: cells; conditions: Mus musculus, P388, 48 h, read-out: Cytotoxicity IC50, resistant P388/VCR-20
# [5] = tested on: P388; assay: Cytotoxicity, sensitive line P388 (Microculture Tetrazolium Assay); assay type: cell-based, murine; conditions: Mus musculus, P388, 48 h; 2 days incubation; read-out: Cytotoxicity IC50, sensitive P388
# Excerpt: as §1
# [6] = tested on: colon 38; assay: Anti-tumour activity against colon 38; assay type: in vivo, female B6D2F1 mice; conditions: for median T/C (tumour volume): d2 and d9, d25
# Protocol: Colon 38 (supplied by NCI, Frederick, USA) was inserted in the form of fragments by the subcutaneous route into female B6D2F1 mice. The compounds were administered by the i.v. route on d2 and d9 and the anti-tumour activity was determined on […] by measuring the tumour volume (T/C volume, %).
# [7] = tested on: KB-A1; conditions: KB-A1 vs KB-3-1
# [8] = tested on: KB-A1; assay: cells; conditions: Homo sapiens, KB-A1, 96 h, read-out: Cytotoxicity IC50, resistant KB-A1
# [9] = tested on: leukaemia P388; assay: Anti-tumour activity against leukaemia P388 in vivo; conditions: for Survivors on d60/total no. of mice / T/C: intraperitoneal, day 1
# [10] = tested on: S1; assay: Cytotoxicity, sensitive line S1; assay type: cell-based; conditions: Homo sapiens, 96 h; 4 days incubation; read-out: Cytotoxicity IC50, sensitive S1
# Excerpt: as §1
# [11] = tested on: S1/tMDR; conditions: for resistance factor: S1/tMDR vs S1
# [12] = tested on: S1/tMDR; assay: cells; conditions: Homo sapiens, 96 h, read-out: Cytotoxicity IC50, resistant S1/tMDR
smiles,measurement,setting,value
"COc1ccc2c(c1)c1cc3c(C(=O)NCCN(C)C)nccc3c(C)c1n2C [Example 3, 1-(N,N-Dimethylaminoethylaminocarbonyl)-5,6-dimethyl-9-methoxy-6H-pyrido[4,3-b]carbazole]",IC50,[1],574 nM
"COc1ccc2[nH]c3c(C)c4ccnc(C(=O)NCCCN(C)C)c4cc3c2c1 [Example 5, 1-(N,N-Dimethylaminopropylaminocarbonyl) -5-methyl-9-methoxy-6H-pyrido[4,3-b]carbazole]",IC50,[1],1500 nM
"Cc1c2ccnc(C(=O)NCCCN(C)C)c2cc2c3cc(O)ccc3n(C)c12 [Example 2, 1-(N,N-Dimethylaminopropylaminocarbonyl)-5,6-dimethyl-9-hydroxy-6H-pyrido[4,3-b]carbazole]",IC50,[2],19 nM
same,resistance factor,[3],"3,4"
same,IC50,[4],38 nM
same,IC50,[5],11 nM
same,T/C,"[6]; 20 mg/kg and above, i.v.",0%
same,activity against that solid tumour (in words),"[6]; 20 mg/kg and above, i.v.",very active
same,median T/C (tumour volume),"[6]; 20 mg/kg, i.v.",0%
same,median T/C (tumour volume),"[6]; 40 mg/kg, i.v.",0%
same,median T/C (tumour volume),"[6]; 60 mg/kg, i.v.",0%
same,activity relative to 5-fluorouracyle,[6]; 5-Fu at 80 mg/kg,as active as
same,resistance factor,[7],64
same,IC50,[8],1220 nM
same,Survivors on d60/total no. of mice,[9]; 5 mg/kg,0/10
same,T/C,[9]; 5 mg/kg,177%
same,Survivors on d60/total no. of mice,[9]; 10 mg/kg,0/10
same,T/C,[9]; 10 mg/kg,190%
same,Survivors on d60/total no. of mice,[9]; 20 mg/kg,3/10
same,T/C,[9]; 20 mg/kg,250%
same,Survivors on d60/total no. of mice,[9]; 30 mg/kg,1/10
same,T/C,[9]; 30 mg/kg,204%
same,Survivors on d60/total no. of mice,[9]; 40 mg/kg,2/10
same,T/C,[9]; 40 mg/kg,219%
same,Survivors on d60/total no. of mice,[9]; 50 mg/kg,3/10
same,T/C,[9]; 50 mg/kg,222%
same,Survivors on d60/total no. of mice,[9]; 60 mg/kg,3/10
same,T/C,[9]; 60 mg/kg,248%
same,IC50,[10],57 nM
same,resistance factor,[11],"0,7"
same,IC50,[12],38 nM
same,times more cytotoxic than adriamycin,[1],approximately 9 times
same,times more cytotoxic than elliptinium acetate,[1],~46 times
same,IC50,[1],4.3 nM
"Cc1c2ccnc(C(=O)NCCCCN)c2cc2c3cc(O)ccc3n(C)c12 [Example 12, 1-[(4-Aminobutyl)aminocarbonyl]-5,6-dimethyl-9-hydroxy-6H-pyrido[4,3-b]carbazole]",IC50,[1],450 nM
"Cc1c2ccnc(C(=O)NCCN(C)C)c2cc2c1[nH]c1ccc(O)cc12 [Example 6, 1-(N,N-Dimethylaminoethylaminocarbonyl)-5-methyl-9-hydroxy-6H-pyrido[4,3-b]carbazole]",IC50,[2],20 nM
same,resistance factor,[3],"0,5"
same,sensitivity of resistant line P388/VCR-20 relative to corresponding sensitive line,[3]; vs P388,more sensitive
same,IC50,[4],10 nM
same,IC50,[5],19 nM
same,median T/C (tumour volume),"[6]; 10 mg/kg, i.v.",35%
same,median T/C (tumour volume),"[6]; 20 mg/kg, i.v.",22%
same,median T/C (tumour volume),"[6]; 30 mg/kg, i.v.",0%
same,resistance factor,[7],37
same,IC50,[8],737 nM
same,Survivors on d60/total no. of mice,[9]; 5 mg/kg,4/10
same,T/C,[9]; 5 mg/kg,280%
same,Survivors on d60/total no. of mice,[9]; 10 mg/kg,3/10
same,T/C,[9]; 10 mg/kg,233%
same,Survivors on d60/total no. of mice,[9]; 20 mg/kg,5/10
same,T/C,[9]; 20 mg/kg,> 600%
same,Survivors on d60/total no. of mice,[9]; 30 mg/kg,7/10
same,T/C,[9]; 30 mg/kg,> 600%
same,long-term survivors over all doses employed,[9]; all doses employed,all the doses employed giving long-term survivors
same,IC50,[10],42 nM
same,resistance factor,[11],"0,7"
same,sensitivity of resistant line S1/tMDR relative to corresponding sensitive line,[11]; vs S1,more sensitive
same,IC50,[12],29 nM
same,times more cytotoxic than adriamycin,[1],approximately 9 times
same,times more cytotoxic than elliptinium acetate,[1],~46 times
same,IC50,[1],3.1 nM
"Cc1c2ccnc(C(=O)NCCNCCO)c2cc2c3cc(O)ccc3n(C)c12 [Example 11, 1-{2-[(2-Hydroxyethyl)amino]ethylaminocarbonyl}-5,6-dimethyl-9-hydroxy-6H-pyrido [4,3-b]carbazole]",IC50,[1],29.7 nM
"COc1ccc2[nH]c3c(C)c4ccnc(C(=O)NCCN(C)C)c4cc3c2c1 [Example 8, 1-(N,N-Dimethylaminoethylaminocarbonyl)-5-methyl-9-methoxy-6H-pyrido[4,3-b]carbazole]",IC50,[1],487 nM
"Cc1c2ccnc(C(=O)NCCCN3CCOCC3)c2cc2c3cc(O)ccc3n(C)c12 [Example 14, 1-[N-(3-Morpholinopropyl)aminocarbonyl]-5,6-dimethyl-9-hydroxy-6H-pyrido[4,3-b]carbazole]",IC50,[1],10.4 nM
"O=c1[nH]cc(F)c(=O)[nH]1 [Example 5-Fu, 5-fluorouracyle, reference compound]",median T/C (tumour volume),"[6]; 80 mg/kg, i.v.",0%
"Cc1c2ccnc(C(=O)NCCCN(C)C)c2cc2c1[nH]c1ccc(O)cc12 [Example 7, 1-(N,N-Dimethylaminopropylaminocarbonyl)-5-methyl-9-hydroxy-6H-pyrido[4,3-b]carbazole]",IC50,[1],41 nM
"Cc1c2ccnc(C(=O)NCCN3CCCC3)c2cc2c3cc(O)ccc3n(C)c12 [Example 13, 1-[N-(2-Pyrrolidin-1-ylethyl)aminocarbonyl]-5,6-dimethyl-9-hydroxy-6H-pyrido[4,3-b]carbazole]",IC50,[1],13.1 nM
"COc1ccc2c(c1)c1cc3c(C(=O)NCCCN(C)C)nccc3c(C)c1n2C [Example 4, 1-(N,N-Dimethylaminopropylaminocarbonyl)-5,6-dimethyl-9-methoxy-6H-pyrido[4,3-b]carbazole]",IC50,[1],875 nM
"COc1ccc2[nH]c3c(C)c4ccnc(C(=O)NCCN5CCCC5)c4cc3c2c1 [Example 9, 1-[2-(Pyrrolidin-1-yl)ethylaminocarbonyl]-5-methyl-9-methoxy-6H-pyrido[4,3-b]carbazole]",IC50,[1],1500 nM
